Experimental data reported in patent US9688760B2, “Anti-leukocyte adhesion for the mitigation of potential adverse events caused by CD3-specific binding domains” (AMGEN RESEARCH (MUNICH) GMBH, priority 2013, dated 2017).

Key:
recombinant human ICAM-1 = assay: Flow chamber: T cell-rolling on recombinant ICAM-1, semi short-term conditions; type: cell-based; settings: freshly isolated T cells, +AMG 103 10 ng/ml, t=45 min; coated at 12.5 μg/ml, with blocking; control −AMG 103 383±144
Description: Recombinant proteins (rhICAM-1 #ADP4-050, rhVCAM-1 #ADP5-050 or rhP-selectin #ADP3-050, R&D Systems) were dissolved in ddH2O according to the manufacturer's instructions. Prior to rolling experiments recombinant proteins were diluted in Dulbecco's PBS with Ca^2+ and Mg^2+ (#L1815, Biochrom) and coated onto a μ-slide VI^0.4 Luer ibiTreat (#80606, ibidi) over night at 4° C. Before usage slides were washed three times with Dulbecco's PBS and blocked where indicated with 20% FBS (#10270, Gibco) in PBS for 2 h at room temperature. Blocking solution was replaced by RPMI 1640 medium (#FG1215, Biochrom) without supplements.
Isolation and characterization of human peripheral blood mononuclear cells (PBMC) and T cells from blood were performed as described in Example 2 (p. 48, 1-31).
For rolling experiments using freshly isolated T cells, these cells were resuspended in RPMI 1640 medium (#FG1215, Biochrom) without supplements to a final concentration of 1×10^6 cells/ml at the start of the experiment (t=0 min; addition of 10 ng/ml Blinatumomab (AMG 103)) and incubated for 35 min at 37° C. and 5% CO2. Cells were then filled in a perfusion set “white” (#10963, ibidi) which was connected to both a fluidic unit and the μ-slide and image sequences of 45 sec duration were recorded at t=40 min, 45 min, and 50 min as described in Example 2 (p. 50, 18-23). […]

patients = assay: Clinical studies of Blinatumomab in B-NHL and B-precursor ALL; type: in vivo, human
From the text: Various clinical studies evaluating the safety and efficacy of Blinatumomab have been conducted both in B-NHL (Bargou et al. Science. 2008; 321:974-7) and B-precursor ALL (Topp et al. J Clin Oncol. 2011; 29:2493-8). […] These studies established clinical proof of concept for the high therapeutic potential of the bispecific single-chain antibody format in general and of Blinatumomab in special and validated its further development in B-NHL, ALL and CLL. Throughout these studies in B-NHL and B-precursor ALL several pharmacodynamic markers were assessed. […] It was characterized by a swift redistribution after start of infusion and any dose step, i.e. a fast disappearance of circulating T cells within the first 6-12 hours and a subsequent reappearance during the following 2-7 days where high initial B cell-counts correlated with decelerated kinetics of T cell-reappearance (FIG. 1A). This course seemed to be triggered by any significant dose changes of Blinatumomab rather than absolute serum concentrations. In addition, T cell-adhesiveness was measured throughout treatment week 1 by analyzing binding of soluble ICAM-1-Fc fusion proteins to LFA-1 on T cells. […] This finding coincided with T cell-redistribution and supported the concept of Blinatumomab-induced T cell-adhesion to endothelium during redistribution.

[1] = test system: ICAM-1 and P-selectin on HUVEC; assay: Immunofluorescence staining of HUVEC after T cell-rolling; type: cell-based, human; settings: T cells pre-incubated with 10 ng/ml Blinatumomab vs untouched T cells
Description: After rolling and adhesion of T cells on HBMEC or HUVEC under flow conditions, endothelial cells were fixed using 150 μl of 4% paraformaldehyde solution (#P-6148, Sigma-Aldrich) for 30 min at 4° C. μ-slides were rinsed with 150 μl of D-PBS and subjected to immunofluorescence staining. HBMEC were first blocked with 150 μl of avidin blocking reagent (#PHA-70871, reagent 1, Dianova) for 10 min at room temperature, washed with 150 μl of D-PBS followed by incubation with 150 μl of biotin blocking reagent (#PHA-70871, reagent 2, Dianova). All following staining procedures were performed in 150 μl of D-PBS with 5% FBS at room temperature in the dark, and washing steps were done in 150 μl of D-PBS. μ-slides were incubated with 5 μg/ml polyclonal rabbit anti-human VCAM-1 (#106777, abcam) for 1 h. After washing, 20 μg/ml goat anti-rabbit IgG-DyLight350 was added for 1 h followed by washing and incubation with 15 μg/ml mouse anti-human P-selectin IgG1 (#BBA30, R&D Systems) for 2 h. After washing, goat anti-mouse IgG-Alexa488 (1:100) (#A10680, Invitrogen) was added for 1 h. […] VCAM-1 staining was monitored with a CFL EPI-FL Filter Block UV-2A (#MBE41200, Nikon), P-selectin staining with a CFL EPI-FL Filter Block GFP-B (#MBE44740, Nikon), and ICAM-1 staining with an EPI-FL Filter Block Cy3 (#MXU96213, Nikon). […]

- time to return of LFA-1 binding affinity to baseline (patients; after peak): ≤ 5 days
- time to peak of increased LFA-1 binding affinity to ICAM-1 (patients; binding of soluble ICAM-1-Fc to LFA-1 on T cells, treatment week 1): ≤ 48 h
Substance: Blinatumomab: recombinant CD19×CD3 bispecific scFv antibody consisting of four immunoglobulin variable domains assembled into a single polypeptide chain
- mean T cell-rolling velocity±SD (recombinant human ICAM-1): 314±79 μm/sec
- time of disappearance of circulating T cells after start of infusion and any dose step (patients; T cell-redistribution, irrespective of dose level): 6 to 12 h
- time of reappearance of circulating T cells (patients; following T cell disappearance): 2 to 7 days
- surface expression of adhesion molecules on HUVEC [1]: increased surface expression of adhesion molecules ICAM-1 and P-selectin
